According to patent US20100184867A1, “USE OF ACTIVE AGENTS FOR STIMULATING THE EXPRESSION OF FN3K AND/OR FN3K RP FOR COMBATING AGEING OF THE SKIN” (CHANEL PARFUMS BEAUTE, priority 2007, published 2010):

System: glycation of the extra-cellular matrix (ECM)
Test: Glycation of the extra-cellular matrix (ECM) of fibroblasts: EFA content by dot blot and densitometric analysis
Assay type: cell-based, human
Settings: 1 mg/ml
Method: Human normal fibroblasts were cultured at 37° C. in the presence of DMEM (Invitrogen) containing 10% of fetal bovine serum (Invitrogen) and 50 UI/ml of penicillin, 50 μg/ml of […] (Invitrogen) and 2 mM of glutamin. Collagen synthesis was stimulated by culturing cells in the presence of vitamin C at 20 μg/ml (Sigma) for 5 days. The cells were then washed with PBS and lysed by successive cycles of freezing and thawing.
Except for the controls, cell layers had previously been treated with Butea frondosa (at 0.02; 0.1 and 0.5%), which was prepared according to Example 1 or with a reference compound: aminoguanidin at 1 mg/ml (Sigma). The cells were then incubated in the presence of 0.1 mg/ml glucose. Each of the treatments was performed, in triplicate, for 15 days at 37° C. with 5% CO2.
At the end of the incubation period, ECM proteins (essentially collagen) were extracted, and the samples were then transferred onto a nitrocellulose membrane (Hybrond, ECL, Amersham) by means of a Milliblot dotblot (Millipore). All the controls were carried out in order to assess the specificity of the final response. No interference was observed. […]
The following table illustrates the effect of this treatment on glucose incorporation into macromolecules synthetised by fibroblasts. The presence of EFA was measured by dot blot analysis and densitometric analysis.

N=C(N)NN [Aminoguanidin, aminoguanidin]
Inhibition of EFA content compared to the control: 35%
EFA content relative to control (15 days, 0.1 mg/ml glucose, control 100%): 65%
